Patent US8835474B2, “Remedy for overactive bladder comprising acetic acid anilide derivative as the active ingredient” (Astellas Pharma Inc., priority 2002, dated 2014)

What was measured:
[1] = test system: isolated rat bladder smooth muscle; experiment: Isolated rat bladder smooth muscle relaxation test, antagonism test to contraction by carbachol; type: cell-based; details: for EC50: Rattus norvegicus; for EC50 / Maximum Relaxation Rate: contraction by 10^−6 M carbachol, relaxation by 10^−4 M papaverine defined as 100%; for Comparison of Action Strength: compared in the concentration giving a relaxation rate of 15.7%, CGP-12,177A = 1; for Concentration where the compound showed a relaxation rate of 15.7%: maximum relaxation rate of CGP-12,177A
Method: (§1) The test was conducted by referring to The Journal of Urology, 1999, volume 161, page 680.
(§2) Male rats of Wistar strain of 10 to 11 weeks age were sacrificed by depletion, whole bladder was isolated by laparotomy and bladder sections each being in a size of about 3×10 mm were prepared in a nutrient solution which was well oxygenated with 95% O2 and 5% CO2 (Krebs-Henseleit solution (118.4 mM NaCl, 4.7 mM KCl, 1.2 mM KH2PO4; 1.2 mM MgSO4, 2.5 mM CaCl2, 25.0 mM NaHCO3 and 11.1 mM glucose)). The section was hung in a Magnus tube in which a nutrient solution (Krebs-Henseleit solution) of 37° C. into which 95% O2 and 5% CO2 were aerated, stabilized for 30 to 60 minutes with a load of 1 g and 10^−6 M carbachol (CCh) or 40 mM potassium chloride (KCl) was repeatedly applied thereto whereupon it was confirmed that reactivity to CCh or KCl became almost constant. After contraction by 10^−6 M CCh or 40 mM KCl was induced and the generated tension was stabilized, a test drug (compound A or CGP-12, 177A) was cumulatively administered in 10-fold ratio with intervals of about 10 minutes and the relaxation reaction was observed. After completion of observation of relaxation reaction at maximum concentration of the test drug, 10^−4 M papaverine was added to induce the maximum relaxation and a relaxation rate was calculated where the relaxation reaction was defined as 100%.

[2] = test system: isolated rat bladder smooth muscle; experiment: Isolated rat bladder smooth muscle relaxation test, antagonism test to contraction by potassium chloride; type: cell-based; details: for EC50: Rattus norvegicus; for EC50 / Maximum Relaxation Rate: contraction by 40 mM potassium chloride, relaxation by 10^−4 M papaverine defined as 100%; for Comparison of Action Strength: compared in the concentration giving a relaxation rate of 17.4%, CGP-12,177A = 1; for Concentration where the compound showed a relaxation rate of 17.4%: maximum relaxation rate of CGP-12,177A
Method: as §1, §2

[3] = test system: rhythmic bladder contraction; experiment: Rat rhythmic bladder contraction measurement test; type: in vivo
Method: The test was conducted by referring to European Journal of Pharmacology, 2000, volume 407, page 175. Female rats (225 to 290 g) of Wistar strain was used for the test. Under anesthetization with urethane, right and left ureters were ligated and cut and, after that, a polyethylene cannula was inserted from external urinary meatus and fixed. One end of the fixed cannula was connected to a pressure transducer via a three-way cock and pressure in the bladder was measured. Another end thereof was connected to a syringe pump and a physiological saline solution was continuously infused at a constant rate into bladder whereupon rhythmic bladder contraction was induced. The continuous infusion of a physiological saline solution was stopped after a rhythmic bladder contraction was noted. After the rhythmic bladder contraction was stabilized, drug or vehicle was administered from a catheter for administration of drug inserted into femoral vein. The compound A was intravenously administered in increased doses where the ratio was 3 (0.03, 0.1, 0.3, 1 and 3 mg/kg). A group to which vehicle was administered was used as a control group. Parameters for evaluation were number of times and contraction pressure of bladder contraction during 10 minutes from 5 to 15 minutes after the administration of the drug and each group was conducted in n=5. The result is shown in terms of mean value±standard error and Student t-test was conducted for comparison between the two groups.

[4] = test system: cyclophosphamide-induced overactive bladder model rat; experiment: Measurement of urination function of overactive bladder model rat induced by cyclophosphamide; type: in vivo; details: 1 mg/kg i.v.; 30 minutes after administration versus 30 minutes before
Method: Overactive bladder model rats induced by cyclophosphamide were prepared by referring to British Journal of Pharmacology, 2000, volume 130, page 331 and the following test was conducted. Female rats (220 to 230 g) of Wistar strain were used for the test. Under anesthetization with pentobarbital sodium, a catheter for infusion of physiological saline solution and for measurement of pressure in bladder was inserted into bladder from the top of the bladder and fixed while a catheter for administration of a drug was inserted into carotid vein and fixed. Cyclophosphamide (CYP) was administered into abdominal cavity and, after being recovered, the rats were returned to a feeding cage. On the next day of the operation, one end of the catheter inserted into bladder of the rat was connected to a syringe pump via a three-way cock and a physiological saline solution was continuously infused whereby |micturition| reflex was induced. Another end was connected to a pressure transducer and pressure in the bladder was measured. After the micturition reflex was stabilized, 1 mg/kg of the compound A was administered from a catheter for administration of drug which was inserted into carotid vein. Parameter for the evaluation was an average interval for urination from administration of the drug until 30 minutes thereafter. […]

[5] = contraction by potassium chloride

SMILES | EC50 [1] | Maximum Relaxation Rate [1] | Comparison of Action Strength ([1]; contraction by carbachol) | Concentration where the compound showed a relaxation rate of 15.7% ([1]; contraction by carbachol) | EC50 [2] | Maximum Relaxation Rate [2] | Comparison of Action Strength [2, 5] | Concentration where the compound showed a relaxation rate of 17.4% [2, 5] | relaxation action ([1]; antagonism test to contraction by carbachol) | action strength as compared with CGP-12,177A ([1]; contraction by carbachol) | relaxation action ([2]; antagonism test to contraction by potassium chloride) | action strength as compared with CGP-12,177A [2, 5] | action of decreasing the contraction frequency versus control group ([3]; 3 mg/kg i.v., Student t-test, p<0.05) | contraction frequency of rhythmic bladder contraction ([3]; i.v. 0.03, 0.1, 0.3, 1 and 3 mg/kg, 5 to 15 minutes after administration, anesthetized female Wistar rats) | contraction pressure of rhythmic bladder contraction ([3]; until intravenous administration of 3 mg/kg) | elongation of micturition interval [4]
CC(C)(C)NC[C@H](O)COc1cccc2[nH]c(=O)[nH]c12 [CGP-12, 177A, reference compound] | > 100 µM | 15.7% | 1 | 10^−4 M | > 100 µM | 17.4% | 1 | 10^−4 M | – | – | – | – | – | – | – | –
Nc1nc(CC(=O)Nc2ccc(CCNC[C@H](O)c3ccccc3)cc2)cs1 [Compound A, (R)-2-(2-aminothiazol-4-yl)-4′-[2-[(2-hydroxy-2-phenylethyl)amino]-ethyl]acetic acid anilide] | 5.2 µM | 94.0% | 270 | 3.7e-07 M | 11 µM | 69.1% | 383 | 2.6e-07 M | strong relaxation action | 270 fold | strong relaxation action | 383 fold | significant | decreased on a dose-dependent manner | did not affect | 17.3%
